The source of these data is article PMC5625163, “Incompatibility of chemical protein synthesis inhibitors with accurate measurement of extended protein degradation rates” (Pharmacology Research & Perspectives, 2017).

Data set [1] has as its system HeLa cells. As to conditions: cited from earlier work.
Data set [2] concerns HepG2 cells. In words: [3H]-leucine incorporation protein synthesis inhibition assay in HepG2 cells. It is filed as cell-based. As to conditions: Homo sapiens, read-out: IC50 protein synthesis inhibition.
Data set [3] can be described thus: Standard MTT cell viability assay in HepG2 cells. Particulars: human. The data set is classed as cell-based, human. Here is the method: (§1) Standard MTT assays were performed on HepG2 and PRH cells to measure cell viability. 2 × 10^4 cells per well of HepG2 were seeded into 96‐well plates in DMEM with 10% FBS and left overnight in a 37°C humidified incubator to allow cells to adhere to the plate. PRH were seeded in collagen coated 96‐well plates at a density of 2 × 10^4 cells per well. Old media was removed and replaced with 0–300 μmol/L of protein synthesis inhibitors and incubated for 72 h. A vehicle control and control with no drug was included. A quantity of 20 μL of 5 mg/mL […] in HBSS was added to each well and incubated for 2 h. A quantity of 100 μL lysis buffer (50% v/v dimethylformahyde and 20% v/v sodium dodecyl sulphate) was added to each well and the plate was incubated overnight at 37°C. The absorbance was quantified at 570 nm by a Tecan GENios micoplate reader (Germany).
(§2) Cycloheximide was incubated at 0–300 μmol/L and emetine at 0–30 μmol/L for both leucine incorporation and MTT assays.
(§3) The IC50 (concentration causing 50% protein synthesis inhibition), CC50 (concentration causing 50% cell viability), and CC10 (concentration causing 90% cell viability) were calculated by nonlinear regression of drug concentration versus leucine incorporation and MTT concentration–response graphs, respectively, using Graphpad Prism 3 software. The IC50 and CC50 values derived from the single inhibitor analyses were used for subsequent fixed‐ratio isobologram two‐drug combination analyses.
For orientation: Tetrazolium dyes change colour on reduction, which living cells bring about.

In data set [4] the test system is HepG2 cells. In words: Standard MTT cell viability assay in HepG2 cells. It is filed as cell-based, human. Particulars: 72 h. Here is the method: as §1, §2, §3
In data set [5] the test system is primary rat hepatocytes (PRH). In words: [3H]-leucine incorporation protein synthesis inhibition assay in primary rat hepatocytes. The data set is classed as cell-based. Particulars: Hepatocyte, 72 h, read-out: IC50 protein synthesis inhibition.
Data set [6] in a line: Standard MTT cell viability assay in primary rat hepatocytes. It is filed as cell-based. Particulars: male, Sprague-Dawley. Here is the method:
Primary rat hepatocytes (PRH) were purchased from Invitrogen (Paisley, UK), isolated from male Sprague–Dawley rats at 9 weeks old (Lot. RS745). Cryopreserved PRH were thawed in a 37°C water bath for approximately 2 min until contents were around 90% thawed. Once thawed, the hepatocytes were added to 50 mL of prewarmed plating media (William's E media without phenol red supplemented with 5% FBS, 1 μmol/L dexamethasone, 1% solution of penicillin/streptomycin, 4 μg/mL bovine insulin, 2 mmol/L GlutaMAX™, and 15 mmol/L HEPES (CHRM® supplement A), and centrifuged for 3 min at 55g at 18°C and the supernatant fraction discarded. The hepatocytes were then resuspended in plating media at 1 × 10^6 cells per ml density.
as §1, §2, §3

The test system of data set [7] is HeLa cells. Also on record: method as in Dudani et al. (1988). As to conditions: at 0.9 mmol/L in HeLa cells; ref Dudani et al. (1988); cited from earlier work.
Data set [8] concerns Huh‐7 cells. Particulars: at 10 μmol/L in Huh‐7 cells; ref Yin Low et al. (2009); cited from earlier work.
Setting [9] is: HepG2 cells, 72 h, single inhibitor, MTT, mean ± SD, read-out: CC50 cytotoxicity (50% cell viability).
Setting [10] is: HepG2 cells, single inhibitor, MTT.
The mark [11] stands for this setting: PRH, 72 h, single inhibitor, MTT, mean ± SD, read-out: CC50 cytotoxicity (50% cell viability).

Counter-ions that a name gives are not always drawn. Like-named read-outs stand apart in the source and are kept apart here. Starred links: 1 amine or outer side, 2 acyl side, 3 side chain; linkers in the order of their positions; H or OH if unused. Positions of bridges follow the written chain, without caps; N, C: chain ends. Non-standard residues stand in square brackets, D forms with d. Residues, ends and D or L forms follow the SMILES beside them. Chains are numbered I, II in the order given. Actinocin(9to1) = Cc1c2oc3c(C)ccc(C(=O)[*:1])c3nc-2c(C(=O)[*:2])c(N)c1=O; NMeV = CN[C@H](C(=O)O)C(C)C; Sar = CNCC(=O)O

The term IC50 denotes the concentration that gives 50% inhibition. By CC50 is commonly meant the concentration at which the toxic effect on the cells reaches its halfway point. Consider `Cc1c2oc3c(C)ccc(C(=O)N[C@@H]4C(=O)N[C@H](C(C)C)C(=O)N5CCC[C@H]5C(=O)N(C)CC(=O)N(C)[C@@H](C(C)C)C(=O)O[C@@H]4C)c3nc-2c(C(=O)N[C@@H]2C(=O)N[C@H](C(C)C)C(=O)N3CCC[C@H]3C(=O)N(C)CC(=O)N(C)[C@@H](C(C)C)C(=O)O[C@@H]2C)c(N)c1=O` [actinomycin D] (I: T[dV]P[Sar][NMeV] / II: T[dV]P[Sar][NMeV]; ester I:1-I:C, II:1-II:C; linker I:N-II:N via Actinocin(9to1)), for which, in data set [1] (HeLa cells, ref Sawicki and Godman (1971)), the “concentration sufficient to cause cell toxicity” value was 0.08 µmol/L. Moreover, the IC50 was 39 ± 7.4 nM in data set [2] (HepG2, 72 h) and 1.7 ± 1.8 nM in data set [5]. The values for the CC50 at 72 h in data set [3] (setting [9]) and in data set [6] (setting [11]) were 6.2 ± 7.3 nM and 0.98 ± 1.8 nM, respectively. In addition, in data set [4] (setting [10]), the “CC10 (90% cell viability concentration)” value is 0.17 nmol/L.

Consider `C[C@@H]1C[C@@H]([C@H](O)CC2CC(=O)NC(=O)C2)C(=O)[C@@H](C)C1` [cycloheximide], for which the IC50 was 6600 ± 2500 nM in data set [2] (HepG2, 72 h) and 290 ± 90 nM in data set [5]. For the same molecule, the results for the CC50 at 72 h in data set [3] (setting [9]) and in data set [6] (setting [11]) were 570 ± 510 nM and 680 ± 1300 nM, respectively. Moreover, the “CC10 (90% cell viability concentration)” value in data set [4] (setting [10]) stood at 24 nmol/L.

`COc1ccc(C[C@H](N)C(=O)N[C@H]2[C@@H](O)[C@H](n3cnc4c(N(C)C)ncnc43)O[C@@H]2CO)cc1` [puromycin, puromycin dihydrochloride]: the concentration causing cytotoxicity in data set [1] (human cell lines, including HeLa cells, ref Dudani et al. (1988)) was 0.9 µmol/L. Moreover, the IC50 turned out to be 1600 ± 1200 nM in data set [2] (HepG2 cells, 72 h, single inhibitor, mean ± SD) and 2000 ± 2000 nM in data set [5] (PRH, single inhibitor, mean ± SD). Also, the CC50 at 72 h came out at 1300 ± 64 nM in data set [3] and 1600 ± 1000 nM in data set [6]. The “CC10 (90% cell viability concentration)” value in data set [4] (human) came out at 110 nmol/L. In data set [7], the protein synthesis inhibition is recorded as 79.6%.

`CC[C@H]1CN2CCc3cc(OC)c(OC)cc3[C@@H]2C[C@@H]1C[C@H]1NCCc2cc(OC)c(OC)cc21` [emetine, emetine dihydrochloride hydrate]: the IC50 worked out at 2200 ± 1400 nM in data set [2] (HepG2, 72 h) and 620 ± 920 nM in data set [5]. Moreover, the CC50 at 72 h turned out to be 81 ± 9 nM in data set [3] (setting [9]) and 180 nM in data set [6] (setting [11]). The “CC10 (90% cell viability concentration)” value in data set [4] (setting [10]) was found to be 7.0 nmol/L. Further, in data set [8], the cell viability result was “over 90%”.
